Data taken from US7169789B2 (Kirin Beer Kabushiki Kaisha, priority 1999, dated 2007).

Experiments:
[1] = test system: A375 human melanoma cells; experiment: Karyomorphosis test; format: cell-based; conditions: test compound 10 μM and 1 μM, 48 hr, nuclei stained with propidium iodide
Experimental: A375 human melanoma cells (2×10^4) (obtained from Japanese Foundation for Cancer Research) were incolulated on a culture slide (manufactured by Falcon) and were cultured at 37° C. After the elapse of 5 hr from the initiation of the cultivation, the test compound was added to 10 μM and 1 μM, and the cultivation was continued for additional 48 hr. After the fixation of cells, 50 μg/ml propidium iodide solution containing ribonuclease (200 μg/ml) was added to stain nuclei. The stained nuclei were observed under a fluorescent microscope to analyze the nuclei for abnormality of karyomorphosis.

human KDR = target: T1, human KDR (Homo sapiens, UniProt P35968); experiment: Inhibitory activity against KDR phosphorylation by ELISA; format: cell-based; conditions: NIH 3T3 cells transfected with human KDR, VEGF 100 ng/ml
T1 construct: expressed in transfected cells; host or cells: NIH 3T3 cells (Sawano A et al., Cell Growth & Differentiation 7, 213-221 (1996))
T1 sequence (P35968 20-1356): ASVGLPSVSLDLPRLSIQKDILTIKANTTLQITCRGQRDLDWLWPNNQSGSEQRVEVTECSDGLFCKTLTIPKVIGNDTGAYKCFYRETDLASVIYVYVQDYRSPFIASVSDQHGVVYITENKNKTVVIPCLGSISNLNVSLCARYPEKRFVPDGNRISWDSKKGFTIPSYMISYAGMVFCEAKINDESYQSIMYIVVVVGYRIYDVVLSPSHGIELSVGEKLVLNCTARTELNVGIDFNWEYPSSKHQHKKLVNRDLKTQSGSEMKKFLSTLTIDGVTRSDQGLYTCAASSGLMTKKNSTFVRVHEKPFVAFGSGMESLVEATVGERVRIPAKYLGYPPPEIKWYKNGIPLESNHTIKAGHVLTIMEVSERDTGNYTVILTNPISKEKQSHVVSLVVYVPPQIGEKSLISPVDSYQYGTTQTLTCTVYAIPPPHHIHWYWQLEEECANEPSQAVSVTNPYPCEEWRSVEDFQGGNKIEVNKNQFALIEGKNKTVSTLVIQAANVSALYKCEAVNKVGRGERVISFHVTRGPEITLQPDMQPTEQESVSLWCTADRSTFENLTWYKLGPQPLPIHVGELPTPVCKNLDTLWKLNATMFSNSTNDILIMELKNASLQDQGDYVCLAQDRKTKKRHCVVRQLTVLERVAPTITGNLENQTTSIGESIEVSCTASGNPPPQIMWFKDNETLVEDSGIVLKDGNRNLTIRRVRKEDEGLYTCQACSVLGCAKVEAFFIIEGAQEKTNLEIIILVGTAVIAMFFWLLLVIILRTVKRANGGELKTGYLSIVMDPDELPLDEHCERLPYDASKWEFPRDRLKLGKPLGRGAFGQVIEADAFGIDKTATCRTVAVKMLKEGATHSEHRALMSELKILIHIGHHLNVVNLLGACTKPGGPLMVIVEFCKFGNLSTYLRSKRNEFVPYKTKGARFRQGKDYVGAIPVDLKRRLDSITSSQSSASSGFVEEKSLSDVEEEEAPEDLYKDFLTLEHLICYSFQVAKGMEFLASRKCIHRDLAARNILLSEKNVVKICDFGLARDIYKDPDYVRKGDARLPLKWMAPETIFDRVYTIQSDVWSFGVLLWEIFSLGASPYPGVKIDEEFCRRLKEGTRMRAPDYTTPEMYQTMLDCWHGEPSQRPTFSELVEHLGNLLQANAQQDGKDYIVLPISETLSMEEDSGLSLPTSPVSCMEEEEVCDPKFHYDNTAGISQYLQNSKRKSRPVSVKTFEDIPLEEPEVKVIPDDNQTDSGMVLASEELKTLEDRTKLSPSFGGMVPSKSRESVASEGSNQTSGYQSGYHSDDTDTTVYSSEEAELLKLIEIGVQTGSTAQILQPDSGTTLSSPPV

[2] = test system: activation of MAPK within vascular endothelial cells induced by VEGF stimulation; experiment: Inhibitory activity against activation of MAPK within vascular endothelial cells induced by VEGF stimulation; format: cell-based; conditions: Endothelial cell; human funicular venous vascular endothelial cells, VEGF 50 ng/ml, phosphorylated MAPK by immunoblotting
Experimental: Measurement of Inhibitory Activity Against Activation of MAPK Within Vascular Endothelial Cells Induced by VEGF Stimulation
Human funicular venous vascular endothelial cells (purchased from Chronetics) were cultured in an EGM-2 medium (purchased from Chronetics) within an incubator containing 5% carbon dioxide until 50 to 70% confluent, and the culture was inoculated into wells, containing the same medium, in a 96-well flat-bottom plate in an amount of 1.5×10^5 per well. After cultivation at 37° C. overnight, the medium was replaced by an EBM-2 medium containing 0.5% fetal calf serum (purchased from Chronetics), followed by cultivation for 24 hr. A solution of the test compound in dimethyl sulfoxide was added to each well, and the cultivation was continued at 37° C. for additional one hr. A human recombinant vascular endothelial growth factor (hereinafter abbreviated to “VEGF”) was added to a final concentration of 50 ng/ml, and the stimulation of cells was carried out at 37° C. for 8 min. The medium was removed, the cells were washed with phosphate buffered saline (pH 7.4), and 10 μl of a solubilization buffer (Tris buffered saline (pH 7.4) containing 1% Triton X100, 2 mM sodium orthovanadylate, and 1 mM disodium ethylenediaminetetraacetate) was then added thereto. The mixture was shaken at 4° C. for one hr to solubilize the cells. An equal amount of Tris buffered saline containing 1% sodium laurylsulfate was added to and thoroughly mixed with the solution. This solution (2 μl) was adsorbed on a PVDF filter by dot blotting, and this filter was subjected to immunoblotting with anti-tyrosine phosphorylated MAPK antibody (purchased from Daiichi Pure Chemicals).
The level of phosphorylated MAPK was quantitatively determined with a densitometer, and the percentage phosphorylated MAPK in the presence of the test compound was determined by presuming the level of phosphorylated MAPK with the addition of VEGF in the absence of the test compound to be 100% and the level of phosphorylated MAPK in the absence of the test compound and VEGF to be 0%. The test compound concentration (IC50) necessary for inhibiting 50% of the activation of MAPK was calculated based on the percentage of phosphorylated MAPK.

Human glioma cells GL07 = experiment: Antitumor effect on human glioma cells (GL07) transplanted into nude mice; format: in vivo; conditions: Mus musculus, Glioma cell, 216 h, GL07, oral, 20 mg/kg once a day for 9 days, read-out: TGIR, % (tumor growth inhibition rate)
Procedure, shortened: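 GL07 xenografts in nude mice, grouped (n=4) at ~100 mm^3 tumor volume. Test compound 20 mg/kg p.o. or i.p. once daily for 9 days; vehicle controls. TGIR = (1−Tx/Cx)×100 from tumor volumes normalized to day-of-start volume = 1.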

With `COc1cc2nccc(Oc3ccc(NC(=O)Nc4ccc(Br)c(C)n4)c(Cl)c3)c2cc1OC` [Example 15, N-(5-Bromo-6-methyl-2-pyridyl)-N′-{2-chloro-4-[(6,7-dimethoxy-4-quinolyl)oxy]phenyl}urea] the Change in morphosis [1] was “(−) (the change in karyomorphosis of cells did not take place at 10 μM)”.

In the case of `CCCNC(=O)Nc1cc(C)c(Oc2ccnc3cc(OC)c(OC)cc23)cc1C` [Example 38, N-{4-[(6,7-Dimethoxy-4-quinolyl)oxy]-2,5-dimethylphenyl}-N′-propylurea], the Change in morphosis [1] is reported as “(−) (the change in karyomorphosis of cells did not take place at 10 μM)”.

`COc1cc2nccc(Oc3cc(C)c(NC(=O)Nc4ccc(Cl)cc4C)cc3C)c2cc1OC` [Example 39, N-(4-chloro-2-methylphenyl)-N′-{4-[(6,7-dimethoxy-4-quinolyl)oxy]-2,5-dimethylphenyl}urea] was tested, and the Change in morphosis [1] was “(−) (the change in karyomorphosis of cells did not take place at 10 μM)”.

`COc1cc2nccc(Oc3cc(C)c(NC(=O)Nc4ccc(Br)c(C)n4)cc3C)c2cc1OC` [Example 44, N-(5-Bromo-6-methyl-2-pyridyl)-N′-{4-[(6,7-dimethoxy-4-quinolyl)oxy]-2,5-dimethylphenyl}urea] was tested, and the Change in morphosis [1] was “(−) (the change in karyomorphosis of cells did not take place at 10 μM)”.

`COc1cc2ncnc(Oc3ccc(NC(=O)Nc4ccc(F)cc4)cc3)c2cc1OC` [Example 73, N-{4-[(6,7-Dimethoxy-4-quinazolinyl)oxy]-phenyl}-N′-(4-fluorophenyl)urea] was tested, and the IC50 (human KDR) was 1 nM, the IC50 [2] was < 2 nM and the inhibition in vivo at 20 mg/kg (Human glioma cells GL07) was 34%.

`COc1cc2ncnc(Oc3ccc(NC(=O)Nc4ccccc4C)cc3)c2cc1OC` [Example 74, N-{4-[(6,7-Dimethoxy-4-quinazolinyl)oxy]-phenyl}-N′-(2-methylphenyl)urea] was tested, and the IC50 (human KDR) was 11 nM, the IC50 [2] was 6 nM and the inhibition in vivo at 20 mg/kg (Human glioma cells GL07) was 28%.

Work on `CCCCNC(=O)Nc1ccc(Oc2ncnc3cc(OC)c(OC)cc23)cc1Cl` [Example 77, N-Butyl-N′-{2-chloro-4-[(6,7-dimethoxy-4-quinazolinyl)oxy]phenyl}urea] yielded an IC50 (human KDR) of 6 nM, an IC50 [2] of 71 nM and an inhibition in vivo at 20 mg/kg (Human glioma cells GL07) of 26%.

Work on `CCCCCNC(=O)Nc1ccc(Oc2ncnc3cc(OC)c(OC)cc23)cc1Cl` [Example 78, N-{2-Chloro-4-[(6,7-dimethoxy-4-quinazolinyl)oxy]phenyl}-N′-pentylurea] yielded an IC50 (human KDR) of 3.4 nM, an IC50 [2] of 4.1 nM and an inhibition in vivo at 20 mg/kg (Human glioma cells GL07) of 21%.

`CCC(C)NC(=O)Nc1ccc(Oc2ncnc3cc(OC)c(OC)cc23)cc1Cl` (stereo not shown) [Example 79, N-(sec-Butyl)-N′-{2-chloro-4-[(6,7-dimethoxy-4-quinazolinyl)oxy]phenyl}urea] was tested, and the IC50 (human KDR) was 18 nM, the IC50 [2] was 30 nM and the inhibition in vivo at 20 mg/kg (Human glioma cells GL07) was 28%.

For `C=CCNC(=O)Nc1ccc(Oc2ncnc3cc(OC)c(OC)cc23)cc1Cl` [Example 80, N-Allyl-N′-{2-chloro-4-[(6,7-dimethoxy-4-quinazolinyl)oxy]phenyl}urea], the IC50 (human KDR) was 2.7 nM, the IC50 [2] was 13 nM and the inhibition in vivo at 20 mg/kg (Human glioma cells GL07) was 52%.

For `COc1cc2ncnc(Oc3ccc(NC(=O)NCc4ccc(F)cc4F)c(Cl)c3)c2cc1OC` [Example 82, N-{2-Chloro-4-[(6,7-dimethoxy-4-quinazolinyl)oxy]phenyl}-N′-(2,4-difluorobenzyl)urea], the IC50 (human KDR) was 8.4 nM, the IC50 [2] was 3.8 nM and the inhibition in vivo at 20 mg/kg (Human glioma cells GL07) was 27%.

In the case of `COc1cc2ncnc(Oc3ccc(NC(=O)N(C)c4ccccn4)c(Cl)c3)c2cc1OC` [Example 83], the IC50 (human KDR) is reported as 840 nM, the IC50 [2] is reported as > 1000 nM and the inhibition in vivo at 20 mg/kg (Human glioma cells GL07) is reported as 31%.

For `COc1cc2ncnc(Oc3ccc(NC(=O)Nc4ccc(F)cc4)c(Cl)c3)c2cc1OC` [Example 85, N-{2-Chloro-4-[(6,7-dimethoxy-4-quinazolinyl)oxy]phenyl}-N′-(4-fluorophenyl)urea], the IC50 (human KDR) was 0.5 nM, the IC50 [2] was 0.7 nM and the inhibition in vivo at 20 mg/kg (Human glioma cells GL07) was 26%.

`CCCCNC(=O)Nc1ccc(Oc2ncnc3cc(OC)c(OC)cc23)cc1F` [Example 89, N-Butyl-N′-{4-[(6,7-dimethoxy-4-quinazolinyl)oxy]-2-fluorophenyl}urea] showed an IC50 (human KDR) of 24 nM, an IC50 [2] of 45 nM and an inhibition in vivo at 20 mg/kg (Human glioma cells GL07) of 40%.

`COc1cc2ncnc(Oc3ccc(NC(=O)NCc4ccc(F)cc4F)c(F)c3)c2cc1OC` [Example 93, N-(2,4-Difluorobenzyl)-N′-{4-[(6,7-dimethoxy-4-quinazolinyl)oxy]-2-fluorophenyl}urea] was tested, and the IC50 (human KDR) was 37 nM, the IC50 [2] was 14 nM and the inhibition in vivo at 20 mg/kg (Human glioma cells GL07) was 29%.

Compound `COc1cc2ncnc(Oc3ccc(NC(=O)Nc4ccc(F)cc4F)c(F)c3)c2cc1OC` [Example 94, N-(2,4-Difluorophenyl)-N′-{4-[(6,7-dimethoxy-4-quinazolinyl)oxy]-2-fluorophenyl}urea] has an IC50 (human KDR) of 2.3 nM, an IC50 [2] of 1.8 nM and an inhibition in vivo at 20 mg/kg (Human glioma cells GL07) of 29%.

`CCCNC(=O)Nc1ccc(Oc2ncnc3cc(OC)c(OC)cc23)c(C)c1` [Example 97, N-{4-[(6,7-Dimethoxy-4-quinazolinyl)oxy]-3′-methylphenyl}-N′-propylurea] was tested, and the IC50 (human KDR) was 490 nM, the IC50 [2] was 518 nM and the inhibition in vivo at 20 mg/kg (Human glioma cells GL07) was 48%.

In the case of `CCCCNC(=O)Nc1ccc(Oc2ncnc3cc(OC)c(OC)cc23)c(C)c1` [Example 98, N-Butyl-N′-{4-[(6,7-dimethoxy-4-quinazolinyl)oxy]-3-methylphenyl}urea], the IC50 (human KDR) is reported as 330 nM, the IC50 [2] is reported as 450 nM and the inhibition in vivo at 20 mg/kg (Human glioma cells GL07) is reported as 38%.

`COc1cc2ncnc(Oc3ccc(NC(=O)Nc4ccc(F)cc4F)cc3C)c2cc1OC` [Example 99, N-(2,4-Difluorophenyl)-N′-{4-[(6,7-dimethoxy-4-quinazolinyl)oxy]-3-methylpenyl}urea] showed an IC50 (human KDR) of 25 nM, an IC50 [2] of 8.8 nM and an inhibition in vivo at 20 mg/kg (Human glioma cells GL07) of 33%.

`COc1cc2ncnc(Oc3ccc(NC(=O)Nc4ccc(F)cc4)cc3C)c2cc1OC` [Example 100, N-{4-[(6,7-Dimethoxy-4-quinazolinyl)oxy)-3-methylphenyl}-N′-(4-fluorophenyl)urea] gave an IC50 (human KDR) of 13 nM, an IC50 [2] of 5.2 nM and an inhibition in vivo at 20 mg/kg (Human glioma cells GL07) of 36%.

Compound `CCCNC(=O)Nc1ccc(Oc2ncnc3cc(OC)c(OC)cc23)cc1C` [Example 102, N-{4-[(6,7-Dimethoxy-4-quinazolinyl)oxy]-2-methylphenyl}-N′-propylurea] has an IC50 (human KDR) of 105 nM, an IC50 [2] of 150 nM and an inhibition in vivo at 20 mg/kg (Human glioma cells GL07) of 24%.

`CCCCNC(=O)Nc1ccc(Oc2ncnc3cc(OC)c(OC)cc23)cc1C` [Example 103, N-Butyl-N′-{4-[(6,7-dimethoxy-4-quinazolinyl)oxy]-2-methylphenyl}urea] showed an IC50 (human KDR) of 78 nM, an IC50 [2] of 53 nM and an inhibition in vivo at 20 mg/kg (Human glioma cells GL07) of 23%.

For `COc1cc2ncnc(Oc3ccc(NC(=O)Nc4ccc(F)cc4F)c(C)c3)c2cc1OC` [Example 104, N-(2,4-Difluorophenyl)-N′-{4-[(6,7-dimethoxy-4-quinazolinyl)oxy]-2-methylphenyl}urea], the IC50 (human KDR) was 3.9 nM, the IC50 [2] was 5.3 nM and the inhibition in vivo at 20 mg/kg (Human glioma cells GL07) was 22%.

`COc1cc2ncnc(Oc3ccc(NC(=O)Nc4ccc(F)cc4)c(C)c3)c2cc1OC` [Example 105, N-{4-[(6,7-Dimethoxy-4-quinazolinyl)oxy]-2-methylphenyl}-N′-(4-fluorophenyl)urea] showed an IC50 (human KDR) of 2 nM, an IC50 [2] of 2.3 nM and an inhibition in vivo at 20 mg/kg (Human glioma cells GL07) of 20%.

`CCCNC(=O)Nc1ccc(Oc2ncnc3cc(OC)c(OC)cc23)cc1[N+](=O)[O-]` [Example 107, N-{4-[(6,7-Dimethoxy-4-quinazolinyl)oxy]-2-nitrophenyl}-N′-propylurea] gave an IC50 (human KDR) of 11 nM, an IC50 [2] of 10.2 nM and an inhibition in vivo at 20 mg/kg (Human glioma cells GL07) of 49%.
